Assays:
Type in all cases: cell-based
[1] = target: T1, human PAC1 receptor (Homo sapiens, UniProt P41586); test: cAMP stimulation in CHO cells expressing PAC1; details: for Emax: CHO
T1 construct: expressed in transfected cells; host or cells: CHO cells (G418 selection)
T1 sequence (P41586 21-468): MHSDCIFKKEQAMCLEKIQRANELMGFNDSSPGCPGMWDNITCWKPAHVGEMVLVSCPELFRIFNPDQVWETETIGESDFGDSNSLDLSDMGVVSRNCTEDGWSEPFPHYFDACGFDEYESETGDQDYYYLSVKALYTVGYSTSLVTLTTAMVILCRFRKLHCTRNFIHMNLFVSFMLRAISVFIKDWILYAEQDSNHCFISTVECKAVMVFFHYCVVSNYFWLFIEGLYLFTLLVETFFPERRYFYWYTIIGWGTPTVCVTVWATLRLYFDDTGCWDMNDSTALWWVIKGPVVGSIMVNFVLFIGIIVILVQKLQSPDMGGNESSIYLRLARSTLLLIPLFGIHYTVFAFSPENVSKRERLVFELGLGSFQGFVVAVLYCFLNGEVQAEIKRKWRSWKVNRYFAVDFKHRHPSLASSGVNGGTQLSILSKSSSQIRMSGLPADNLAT
Protocol: (§1) Briefly, human PAC1, VPAC1, and VPAC2 receptors expressed in CHO cells were used for all experiments. Cells were grown in 50:50 DMEM-F12 medium with 10% heat-inactivated fetal bovine serum, 1X penicillin-streptomycin supplement, and 500 μg/ml G418 (neomycin) to maintain selection (all from ThermoFisher) at 37°C with 5% CO2 atmosphere. For the cAMP assay, cells were seeded at 20,000 cells/well in a 96 well plate, recovered overnight, then serum starved for 4 h. The cells were then incubated with 500 μM IBMX for 20 min, followed by agonist concentration curves in 500 μM IBMX media for 10 min. The reaction was terminated, boiled, then collected, followed by competition with 7 μg of bovine protein kinase A (Sigma-Aldrich) and ∼1 pmol of ^3H-cAMP (PerkinElmer). The assay was incubated at room temp for 1 h, then collected onto GF/B filter plates and the data read using a MicroBeta2 scintillation counter (PerkinElmer).

[2] = target: T2, human VPAC1 receptor (Homo sapiens, UniProt P32241); test: cAMP stimulation in CHO cells expressing VPAC1; details: for Emax: CHO, read-out: VPAC1 Emax; for Receptor selectivity ratio VPAC1/PAC1: ratio of cAMP EC50 values; for EC50: read-out: VPAC1 EC50
T2 construct: expressed in transfected cells; host or cells: CHO cells (G418 selection)
T2 sequence (P32241 31-457): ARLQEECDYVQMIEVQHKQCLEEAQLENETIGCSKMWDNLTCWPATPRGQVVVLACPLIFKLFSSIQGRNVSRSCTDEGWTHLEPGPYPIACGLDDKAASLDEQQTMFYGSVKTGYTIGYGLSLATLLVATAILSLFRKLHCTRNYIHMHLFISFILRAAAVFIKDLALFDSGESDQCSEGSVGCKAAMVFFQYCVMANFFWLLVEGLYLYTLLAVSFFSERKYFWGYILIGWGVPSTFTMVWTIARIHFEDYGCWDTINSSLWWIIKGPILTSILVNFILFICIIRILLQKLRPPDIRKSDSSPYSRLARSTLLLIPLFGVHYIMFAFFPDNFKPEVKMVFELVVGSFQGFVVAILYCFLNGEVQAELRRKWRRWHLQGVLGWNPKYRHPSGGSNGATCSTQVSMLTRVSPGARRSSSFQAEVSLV

[3] = target: T3, human VPAC2 receptor (Homo sapiens, UniProt P41587); test: cAMP stimulation in CHO cells expressing VPAC2; details: for Emax: CHO; for Receptor selectivity ratio VPAC2/PAC1 / Receptor selectivity ratio VPAC2/VPAC1: ratio of cAMP EC50 values
T3 construct: expressed in transfected cells; host or cells: CHO cells (G418 selection)
T3 sequence (P41587 24-438): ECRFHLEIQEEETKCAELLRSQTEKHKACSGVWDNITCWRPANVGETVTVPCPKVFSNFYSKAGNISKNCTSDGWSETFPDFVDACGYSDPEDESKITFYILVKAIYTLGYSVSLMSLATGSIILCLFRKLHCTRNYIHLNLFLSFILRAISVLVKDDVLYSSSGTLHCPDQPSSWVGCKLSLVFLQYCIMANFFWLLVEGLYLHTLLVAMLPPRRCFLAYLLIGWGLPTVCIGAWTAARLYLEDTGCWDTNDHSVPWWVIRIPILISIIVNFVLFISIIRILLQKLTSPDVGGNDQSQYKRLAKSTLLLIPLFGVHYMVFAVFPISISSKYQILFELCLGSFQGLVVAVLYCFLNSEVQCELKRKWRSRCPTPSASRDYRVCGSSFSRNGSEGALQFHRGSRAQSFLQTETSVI
Protocol: as §1

[2H]C([2H])([2H])C([2H])(C([2H])([2H])[2H])[C@]([2H])(NC(=O)[C@H](C)NC(=O)[C@H](C)NC(=O)[C@H](CC(C)C)NC(=O)[C@H](Cc1ccc(O)cc1)NC(=O)[C@H](CCCCN)NC(=O)[C@H](CCCCN)NC(=O)[C@@H](NC(=O)[C@H](C)NC(=O)[C@H](CC(C)C)NC(=O)[C@H](CCC(N)=O)NC(=O)[C@H](CCCCN)NC(=O)[C@H](CCCNC(=N)N)NC(=O)[C@H](Cc1ccc(O)cc1)NC(=O)[C@H](CCCNC(=N)N)NC(=O)[C@H](CO)NC(=O)[C@H](Cc1ccc(O)cc1)NC(=O)[C@H](CO)NC(=O)[C@H](CC(=O)O)NC(=O)[C@@H](NC(=O)[C@H](Cc1ccccc1)NC(=O)[C@@H](NC(=O)CNC(=O)[C@H](CC(=O)O)NC(=O)[C@H](CO)NC(=O)[C@@H](N)Cc1c[nH]cn1)[C@@H](C)CC)[C@@H](C)O)C(C)C)C(=O)N[C@@H](CC(C)C)C(=O)N[C@@H](CO[C@@H]1O[C@H](CO)[C@@H](O[C@@H]2O[C@H](CO)[C@@H](O)[C@H](O)[C@H]2O)[C@H](O)[C@H]1O)C(N)=O [Compound 2LS98Cell] gave an EC50 [1] of 0.84 nM, an Emax [1] of 92% and an Emax [2] of 93%. For the same molecule, the “Receptor selectivity ratio VPAC1/PAC1” value [2] was 0.62, the EC50 [2] was 0.52 nM and the EC50 [3] was 55.6 nM. The Emax [3] was 91%, the “Receptor selectivity ratio VPAC2/PAC1” value [3] was 66.19 and the “Receptor selectivity ratio VPAC2/VPAC1” value [3] was 106.92.
In the case of CCCC[C@H](NC(=O)CNC(=O)[C@H](CC(=O)O)NC(=O)[C@@H](CO)NC(=O)[C@@H](N)Cc1c[nH]cn1)C(=O)N[C@@H](Cc1ccccc1)C(=O)N[C@H](C(=O)N[C@@H](CC(=O)O)C(=O)N[C@@H](CO)C(=O)N[C@@H](Cc1ccc(O)cc1)C(=O)N[C@@H](CO)C(=O)N[C@@H](CCCNC(=N)N)C(=O)N[C@@H](Cc1ccc(O)cc1)C(=O)N[C@@H](CCCNC(=N)N)C(=O)N[C@@H](CCCCN)C(=O)N[C@@H](CCC(N)=O)C(=O)N[C@@H](CCC)C(=O)N[C@@H](C)C(=O)N[C@H](C(=O)N[C@@H](CCCCN)C(=O)N[C@@H](CCCCN)C(=O)N[C@@H](Cc1ccc(O)cc1)C(=O)N[C@@H](CC(C)C)C(=O)N[C@@H](C)C(=O)N[C@@H](C)C(=O)N[C@H](C(=O)N[C@@H](CC(C)C)C(=O)N[C@@H](CO[C@@H]1O[C@H](CO)[C@@H](O)[C@H](O)[C@H]1O)C(N)=O)C(C)C)C(C)C)[C@@H](C)O [CRA3017], the EC50 [1] is reported as 10.6 nM, the Emax [1] is reported as 95% and the Emax [2] is reported as 94%. The “Receptor selectivity ratio VPAC1/PAC1” value [2] was 0.45, the EC50 [2] was 4.8 nM and the EC50 [3] was 189 nM. For the same molecule, the Emax [3] was 109%, the “Receptor selectivity ratio VPAC2/PAC1” value [3] was 17.83 and the “Receptor selectivity ratio VPAC2/VPAC1” value [3] was 39.38.
For CCC[C@H](NC(=O)[C@H](CCC(N)=O)NC(=O)[C@H](CCCCN)NC(=O)[C@H](CCCNC(=N)N)NC(=O)[C@H](Cc1ccc(O)cc1)NC(=O)[C@H](CCCNC(=N)N)NC(=O)[C@H](CO)NC(=O)[C@H](Cc1ccc(O)cc1)NC(=O)[C@H](CO)NC(=O)[C@H](CC(=O)O)NC(=O)[C@@H](NC(=O)[C@H](Cc1ccccc1)NC(=O)[C@@H](NC(=O)CNC(=O)[C@H](CC(=O)O)NC(=O)[C@@H](CO)NC(=O)[C@H](Cc1c[nH]cn1)NC(C)=O)[C@@H](C)CC)[C@@H](C)O)C(=O)N[C@@H](C)C(=O)N[C@H](C(=O)N[C@@H](CCCCN)C(=O)N[C@@H](CCCCN)C(=O)N[C@@H](Cc1ccc(O)cc1)C(=O)N[C@@H](CC(C)C)C(=O)N[C@@H](C)C(=O)N[C@@H](C)C(=O)N[C@H](C(=O)N[C@@H](CC(C)C)C(=O)N[C@@H](CO[C@@H]1O[C@H](CO)[C@@H](O[C@@H]2O[C@H](CO)[C@H](O)[C@H](O)[C@H]2O)[C@H](O)[C@H]1O)C(N)=O)C(C)C)C(C)C [Ac-CRA 3000-Lac], the Emax [1] was 86%, the Emax [2] was 99% and the Emax [3] was 114%.
In the case of CCC[C@H](NC(=O)[C@H](CCC(N)=O)NC(=O)[C@H](CCCCN)NC(=O)[C@H](CCCNC(=N)N)NC(=O)[C@H](Cc1ccc(O)cc1)NC(=O)[C@H](CCCNC(=N)N)NC(=O)[C@H](CO)NC(=O)[C@H](Cc1ccc(O)cc1)NC(=O)[C@H](CO)NC(=O)[C@H](CC(=O)O)NC(=O)[C@@H](NC(=O)[C@H](Cc1ccccc1)NC(=O)[C@@H](NC(=O)CCNC(=O)[C@H](CC(=O)O)NC(=O)[C@@H](CO)NC(=O)[C@@H](N)Cc1c[nH]cn1)[C@@H](C)CC)[C@@H](C)O)C(=O)N[C@@H](C)C(=O)N[C@H](C(=O)N[C@@H](CCCCN)C(=O)N[C@@H](CCCCN)C(=O)N[C@@H](Cc1ccc(O)cc1)C(=O)N[C@@H](CC(C)C)C(=O)N[C@@H](C)C(=O)N[C@@H](C)C(=O)N[C@H](C(=O)N[C@@H](CC(C)C)C(=O)N[C@@H](CO[C@@H]1O[C@H](CO)[C@@H](O)[C@H](O)[C@H]1O)C(N)=O)C(C)C)C(C)C [CRA3008], the EC50 [1] is reported as 159 nM, the Emax [1] is reported as 76% and the Emax [2] is reported as 108%. For the same molecule, the “Receptor selectivity ratio VPAC1/PAC1” value [2] was 1.27, the EC50 [2] was 202 nM and the EC50 [3] was 737 nM. The Emax [3] was 65%, the “Receptor selectivity ratio VPAC2/PAC1” value [3] was 4.64 and the “Receptor selectivity ratio VPAC2/VPAC1” value [3] was 3.65.
For CCCC[C@@H](NC(=O)CNC(=O)[C@H](CC(=O)O)NC(=O)[C@@H](CO)NC(=O)[C@H](Cc1c[nH]cn1)NC(C)=O)C(=O)N[C@@H](Cc1ccccc1)C(=O)N[C@H](C(=O)N[C@@H](CC(=O)O)C(=O)N[C@@H](CO)C(=O)N[C@@H](Cc1ccc(O)cc1)C(=O)N[C@@H](CO)C(=O)N[C@@H](CCCNC(=N)N)C(=O)N[C@@H](Cc1ccc(O)cc1)C(=O)N[C@@H](CCCNC(=N)N)C(=O)N[C@@H](CCCCN)C(=O)N[C@@H](CCC(N)=O)C(=O)N[C@@H](CCC)C(=O)N[C@@H](C)C(=O)N[C@H](C(=O)N[C@@H](CCCCN)C(=O)N[C@@H](CCCCN)C(=O)N[C@@H](Cc1ccc(O)cc1)C(=O)N[C@@H](CC(C)C)C(=O)N[C@@H](C)C(=O)N[C@@H](C)C(=O)N[C@H](C(=O)N[C@@H](CC(C)C)C(=O)N[C@@H](CO[C@@H]1O[C@H](CO)[C@@H](O)[C@H](O)[C@H]1O)C(N)=O)C(C)C)C(C)C)[C@@H](C)O [Ac-CRA 3019], the EC50 [1] was 1640 nM, the Emax [1] was 58% and the Emax [2] was 18%. For the same molecule, the EC50 [3] was > 2500 nM and the Emax [3] was 62%.
CCC[C@H](NC(=O)CNC(=O)[C@H](CC(=O)O)NC(=O)[C@@H](CO)NC(=O)[C@@H](N)Cc1c[nH]cn1)C(=O)N[C@@H](Cc1ccccc1)C(=O)N[C@H](C(=O)N[C@@H](CC(=O)O)C(=O)N[C@@H](CO)C(=O)N[C@@H](Cc1ccc(O)cc1)C(=O)N[C@@H](CO)C(=O)N[C@@H](CCCNC(=N)N)C(=O)N[C@@H](Cc1ccc(O)cc1)C(=O)N[C@@H](CCCNC(=N)N)C(=O)N[C@@H](CCCCN)C(=O)N[C@@H](CCC(N)=O)C(=O)N[C@@H](CCC)C(=O)N[C@@H](C)C(=O)N[C@H](C(=O)N[C@@H](CCCCN)C(=O)N[C@@H](CCCCN)C(=O)N[C@@H](Cc1ccc(O)cc1)C(=O)N[C@@H](CC(C)C)C(=O)N[C@@H](C)C(=O)N[C@@H](C)C(=O)N[C@H](C(=O)N[C@@H](CC(C)C)C(=O)N[C@@H](CO[C@@H]1O[C@H](CO)[C@@H](O)[C@H](O)[C@H]1O)C(N)=O)C(C)C)C(C)C)[C@@H](C)O [CRA 3016] was tested, and the EC50 [1] was 25.4 nM, the Emax [1] was 93% and the Emax [2] was 109%. For the same molecule, the “Receptor selectivity ratio VPAC1/PAC1” value [2] was 1.13, the EC50 [2] was 28.6 nM and the EC50 [3] was 291 nM. The Emax [3] was 105%, the “Receptor selectivity ratio VPAC2/PAC1” value [3] was 11.46 and the “Receptor selectivity ratio VPAC2/VPAC1” value [3] was 10.17.
